In article PMC3907690 (FEBS Open Bio, 2014):

Legend:
[1] = biological target: WalR (Bacillus anthracis, UniProt A0A2P0HLU7)
[2] = biological target: WalKc(PH) (Bacillus anthracis, UniProt A0A6H3AEB6)
[3] = biological target: WalKc (Bacillus anthracis, UniProt A0A6H3AEB6)
[4] = biological target: WalKc(H) (Bacillus anthracis, UniProt A0A6H3AEB6)
Chain of WalKc(H) (A0A6H3AEB6 380-613 limits assumed): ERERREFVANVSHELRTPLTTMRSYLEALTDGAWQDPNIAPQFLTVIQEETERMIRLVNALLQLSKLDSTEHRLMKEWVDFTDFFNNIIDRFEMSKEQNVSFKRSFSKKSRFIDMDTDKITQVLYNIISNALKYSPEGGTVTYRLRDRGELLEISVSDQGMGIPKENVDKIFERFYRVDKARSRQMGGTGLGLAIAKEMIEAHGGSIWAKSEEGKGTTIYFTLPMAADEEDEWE

Chain of WalKc(PH) (A0A6H3AEB6 263-613 limits assumed): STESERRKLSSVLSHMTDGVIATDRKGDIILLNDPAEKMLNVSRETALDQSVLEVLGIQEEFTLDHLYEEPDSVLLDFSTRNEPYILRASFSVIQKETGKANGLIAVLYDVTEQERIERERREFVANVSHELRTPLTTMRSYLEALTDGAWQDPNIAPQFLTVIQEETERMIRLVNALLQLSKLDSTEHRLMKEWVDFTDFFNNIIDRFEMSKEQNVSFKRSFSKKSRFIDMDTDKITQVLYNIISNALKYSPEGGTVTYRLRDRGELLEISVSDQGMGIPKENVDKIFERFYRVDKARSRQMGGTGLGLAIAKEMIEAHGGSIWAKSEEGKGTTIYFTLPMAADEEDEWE
Chain of WalR (A0A2P0HLU7 1-235): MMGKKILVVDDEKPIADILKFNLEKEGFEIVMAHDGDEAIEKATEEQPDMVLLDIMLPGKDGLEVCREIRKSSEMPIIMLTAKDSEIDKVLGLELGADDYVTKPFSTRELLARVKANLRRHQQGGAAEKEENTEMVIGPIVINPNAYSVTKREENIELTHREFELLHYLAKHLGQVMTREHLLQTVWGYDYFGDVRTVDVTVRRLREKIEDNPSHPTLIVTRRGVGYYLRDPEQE
Chain of WalKc (A0A6H3AEB6 210-613 limits assumed): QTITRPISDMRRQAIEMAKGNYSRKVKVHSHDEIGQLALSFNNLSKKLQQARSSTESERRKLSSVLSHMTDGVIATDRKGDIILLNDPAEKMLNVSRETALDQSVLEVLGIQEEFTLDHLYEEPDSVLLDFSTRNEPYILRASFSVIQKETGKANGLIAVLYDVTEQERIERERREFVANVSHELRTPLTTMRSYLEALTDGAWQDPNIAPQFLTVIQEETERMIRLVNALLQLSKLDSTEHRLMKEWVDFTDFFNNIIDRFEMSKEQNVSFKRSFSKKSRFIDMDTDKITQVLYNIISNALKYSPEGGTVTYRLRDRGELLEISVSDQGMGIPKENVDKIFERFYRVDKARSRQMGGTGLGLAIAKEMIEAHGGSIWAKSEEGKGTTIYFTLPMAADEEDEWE

SMILES: NC(=O)OP(=O)(O)O [carbamoyl phosphate]
- phosphorylation of WalR, native PAGE with coomassie staining [1]: Carbamoyl phosphate mediated phosphorylation of WalR was also found to be inefficient

SMILES: Nc1ncnc2c1ncn2[C@@H]1O[C@H](COP(=O)(O)OP(=O)(O)OP(=O)(O)O)[C@@H](O)[C@H]1O [ATP]
- autophosphorylation, 32P SDS-PAGE autoradiography [2]: Both, WalKc(PH) and WalKc(H), appeared to be more efficient than WalKc in autophosphorylation
- autophosphorylation, 32P SDS-PAGE autoradiography [3]: When WalKc was incubated with labeled ATP mixture, autophosphorylation could be detected
- autophosphorylation, 32P SDS-PAGE autoradiography [4]: Both, WalKc(PH) and WalKc(H), appeared to be more efficient than WalKc in autophosphorylation
